Data published in patent publication US12685709B2, “Solid solution compositions and use in chronic inflammation” (Infirst Healthcare Limited, priority 2011, dated 2026).
“And” between values parts separate entries of the source, which are not always exact repeats. Identical values can stand only once.

Experiments:
[1] = tested on: U937 monocyte cell line differentiated into macrophages; details: % therapeutic compound taken up by macrophages after 45 minutes incubation, HPLC; N=2
Protocol: Cultures of U937 monocyte cell line were grown in RPMI-1640 supplemented with 10% fetal calf serum (FCS) until the cells reached 90% confluent monolayer. These cells were then treated with PMA and incubated in a 37° C. incubator under 5% carbon dioxide until the cells differentiated into macrophages. […] After incubation for 45 minutes the test solution supernatants were removed and saved for analysis, and the cells were then washed in PBS several times and lysed using two cycles of freeze-thawing. Therapeutic compound concentration present in the test solution, test solution supernatant, and cell lyste fractions was measured by HPLC. The percentage therapeutic compound taken up by the macrophages was calculated using the following formula: % therapeutic compound adsorbed=100×(compound mass recovered from cell lysate)/(compound mass delivered in test solution−compound mass recovered from test solution supernatant).

[2] = tested on: TBS-induced colitis murine model; experiment: Animal model for inflammatory bowel disease (TNBS-induced colitis); type: in vivo, C57BI/6 male mice; details: for Mean Colon Length / Mean Colon Weight / Mean Animal Weight: TNBS colitis; for Mean Colon Length / Mean Colon Weight / Endoscopy Colitis Severity Score Day 5: day 5; for Mean Animal Weight: oral dosing day -1 to day 5, Prednisolone 3 mg/kg, ibuprofen 20 mg/kg, BC1054-20 20 mg/kg, BC1054-30 30 mg/kg; for Endoscopy Colitis Severity Score Day 3 / Endoscopy Colitis Severity Score Day 5: video endoscopy, scale 0 to 4
Protocol: To assess the effectiveness of a pharmaceutical composition disclosed herein in treating an inflammatory bowel disease, experiments were conducted using a […] colitis murine model.
C57BI/6 male mice (6-7 weeks old) were divided into seven experimental groups containing at least ten animals each. On day 0, colitis was induced in mice from Groups B-G by intrarectal administration of 100 μL of TNBS (4 mg) in 50% ethanol under isoflurane anesthesia. Animals were dosed either once or three times a day from day −1 to day 5 with one of seven different treatments. Group A was a control in which each mouse was orally administered ethanol vehicle only. Group B was a control in which each mouse was orally administered 1% methylcellulose vehicle only. Group C was a control in which each mouse was orally administered solvent/adjuvant vehicle only (gavage of 10% ethanol and 90% linseed oil). Group D was a control in which each mouse was orally administered 3 mg/kg of Prednisolone. Group E was a control in which each mouse was orally administered 20 mg/kg of ibuprofen suspended in 1% methylcellulose (1 ml/kg) (no adjuvant). Group F was the experimental group in which each mouse was administered a pharmaceutical composition disclosed herein (BC1054-20) comprising 20 mg/kg of ibuprofen, 10% ethanol, and 90% linseed oil. Group G was the experimental group in which each mouse was administered a pharmaceutical composition disclosed herein (BC1054-30) comprising 30 mg/kg of ibuprofen, 10% ethanol, and 90% linseed oil. All animals were weighed daily and assessed visually for the presence of diarrhea and/or bloody stool. On day 3 and on day 5 colitis severity was assessed in all animals using video endoscopy, where images were taken and colitis severity scored visually by a blinded observer on a scale from 0 to 4 as follows: 0, normal; 1, loss of vascularity; 2, loss of vascularity and friability; 3, friability and erosions; and 4, ulcerations and bleeding. Following endoscopy on day 5, animals were sacrificed and the colon removed and its length and weight measured. Serum samples were obtained and the colon was fixed in 10% formalin. An additional piece of colon tissue was collected, weighed, and snap frozen in liquid nitrogen.

[3] = tested on: intestinal erosion murine model; experiment: Animal model for intestinal erosion (gastric irritation score); type: in vivo, Sprague-Dawley rats; details: for Mean Ulceration Score: 4 hours after treatment, score 0-4
Protocol: To assess whether a pharmaceutical composition disclosed herein reduced gastric irritation, experiments were conducted using an intestinal erosion murine model.
Sprague-Dawley rats were divided into seven experimental groups containing five animals each. After fasting overnight, the animals were challenged with one with one of seven different treatments. Group A was a control in which each mouse was orally administered 1% methylcellulose/0.5% polysorbate 80 vehicle only. Group B was a control in which each mouse was orally administered solvent/adjuvant vehicle only (gavage of 10% ethanol and 90% linseed oil). Group C was a control in which each mouse was orally administered 150 mg/kg aspirin. Group D was a control in which each mouse was orally administered 100 mg/kg ibuprofen suspended in 1% methylcellulose/0.5% polysorbate 80. Group E was the experimental group in which each mouse was administered a pharmaceutical composition disclosed herein (BC1054-100) comprising 100 mg/kg of ibuprofen, 10% ethanol, and 90% linseed oil. Group F was a control in which each mouse was orally administered 100 mg/kg ibuprofen suspended in 1% methylcellulose/0.5% polysorbate 80. Group G was the experimental group in which each mouse was administered a pharmaceutical composition disclosed herein (BC1054-200) comprising 200 mg/kg of ibuprofen, 10% ethanol, and 90% linseed oil. Animals were sacrificed 4 hours after treatment and the stomachs were examined for degree of hemorrhage and severity of mucosal erosive lesions. Gastric irritation was scored as follows: 0, no lesions; 1, hyperemia; 2, one or two slight lesions; 3, more than two slight lesions or severe lesions; and 4, very severe lesions. A score of 50% or more relative to Group C (aspirin-treated control group), which was set to 100%, was considered a positive score for gastric irritation.

[4] = tested on: α-collagen antibody induced arthritis (ACAIA) murine model; experiment: Alpha-collagen antibody induced arthritis (ACAIA) model for systemic arthritis; type: in vivo, Male BALB/c mice; details: for mean paw thickness compared to vehicle-treated Group 1M (significance): ANOVA with Tukey post hoc
Protocol: To assess the effectiveness of a pharmaceutical composition disclosed herein in treating arthritis, experiments were conducted using an α-collagen antibody induced arthritis (ACAIA) murine model that mimics a systemic arthritis like rheumatoid arthritis.
Male BALB/c mice were divided into eight groups, each containing 10 animals. To induce arthritic symptoms, mice from all eight groups were intravenously injected with 200 μL of an antibody solution comprising a 2 mg cocktail of four α-collagen II monoclonal antibodies (ARTHRITOMAB™, MD Biosciences) on study day 0 (study commencement), followed by a 200 μL intraperitoneal injection of a solution containing 100 μg lipopolysaccharide (LPS) on study day 3. Each group was subjected daily to a control or test treatment administered from day 0-11 as follows: Group 1 mice (1M) were treated orally with a vehicle preparation containing 1% methyl cellulose administered thrice daily; Group 2 mice (2M) were treated intraperitoneally with a positive control preparation containing 10 mg/kg etanercept (ENBREL®, Wyeth) administered once daily; Group 3 mice (3M) were treated orally with a 20 mg/kg test liquid formulation comprising ibuprofen and rapeseed oil (BC1054 LF-RO) administered once daily; Group 4 mice (4M) were treated orally with a 20 mg/kg test liquid formulation comprising ibuprofen and rapeseed oil (BC1054 LF-RO) administered thrice daily; Group 5 mice (5M) were treated orally with a 20 mg/kg test liquid formulation comprising ibuprofen and a glyceryl monolinoleate (MAISINE™ 35-1, Gattefosse) (BC1054 LF-MA) administered thrice daily; Group 6 mice (6M) were treated orally with a 20 mg/kg test solid formulation comprising ibuprofen and theobroma oil (BC1054 LF-TO) administered thrice daily; Group 7 mice (7M) were treated orally with a control preparation 1 comprising 20 mg/kg of ibuprofen administered thrice daily; and Group 8 mice (8M) were treated orally with a 20 mg/kg test solid formulation comprising ibuprofen and a waxy solid having a melting point of between 37° C. to 41° C. and comprising a mixture of saturated C10-C18 triglycerides ([…]® 39/01, Gattefosse) (BC1054 LF-GE) administered thrice daily (Table 6). The dose administered was calculated based on the assumption that each animal weighed, on average, 20 g. A fixed volume of 100 μL was administered to each mouse, except those animals receiving the positive control (2M) were administered 200 μL.
Arthritic development and clinical examinations were monitored in all mice on study day 0 shortly before arthritis induction and subsequently on study days 3-7, 9, 10 and 12 (study termination). To access arthritic development, both an arthritis score and paw thickness (plethysmography) measurements were obtained. The arthritis score was based on visual assessment of arthritis reactions using a 0-4 scale in ascending order of severity with Grade 0 indicating no arthritis reaction; Grade 1 indicating mild, but definite redness and swelling of the ankle/wrist or apparent redness and swelling limited to individual digits, regardless of the number of affected digits; Grade 2 indicating moderate to severe redness and swelling of the ankle/wrist; Grade 3 indicating redness and swelling of the entire paw including digits; and Grade 4 indicating maximally inflamed limb with involvement of multiple joints. Paw thickness was measured for both hind paws just above the foot pad and below the calcaneum using a dial caliper (Kroeplin, Munich, Germany). Mean values for paw thickness measurements were determined, and where appropriate, analysis of the data by ANOVA with Tukey post hoc analysis was applied to determine significance of treatment effects.
Clinical examinations included changes in body weight, condition of skin, fur, eyes, mucous membranes, occurrence of secretions and excretions (e.g. diarrhea), and autonomic activity (e.g. lacrimation, salivation, piloerection, pupil size, unusual respiratory pattern). […]

[5] = statistical comparison, doses as E9
[6] = day 6, 20 mg/kg PO thrice daily (Groups 4M-8M)

For `CC(C)Cc1ccc(C(C)C(=O)O)cc1` (stereo not drawn) [Formulation C, ibuprofen free acid], the “Mean Mass Compound Uptake” value [1] was 0.4%.

With `C[C@]12C=CC(=O)C=C1CC[C@@H]1[C@@H]2[C@@H](O)C[C@@]2(C)[C@H]1CC[C@]2(O)C(=O)CO` [Prednisolone] the Mean Colon Length ([2]; doses as E9) was 8.4 cm, the “Mean Colon Weight” value ([2]; doses as E9) was 267 mg and the “Mean Animal Weight” value [2] was 23.33 g. The “mean colitis scores compared to Group B (TNBS-treated control group)” value [2, 5] was “statistically significant reduced mean colitis scores on both day 3 and day 5”, the “mean colon length compared to Group B (TNBS-treated control group)” value [2, 5] was “statistically significant increase in mean colon length” and the “Endoscopy Colitis Severity Score Day 3” value ([2]; doses as E9) was 2.3^7. For the same compound, the “Endoscopy Colitis Severity Score Day 5” value ([2]; doses as E9) was 1.7^8.

With `CC(=O)Oc1ccccc1C(=O)O` [aspirin] the “% Aspirin Erosion” value ([3]; Group C, 150 mg/kg aspirin, set to 100%) was “(100) %” and the “Mean Ulceration Score” value ([3]; Group C, 150 mg/kg oral) was 4.

For `CC(C)Cc1ccc(C(C)C(=O)O)cc1` (stereo not drawn) [ibuprofen], the “Mean Colon Length” value ([2]; doses as E9) was 7.9 cm, the “Mean Colon Weight” value ([2]; doses as E9) was 267 mg and the “Mean Animal Weight” value [2] was 23.82 g. For the same compound, the “Endoscopy Colitis Severity Score Day 3” value ([2]; doses as E9) was 2.7, the “Endoscopy Colitis Severity Score Day 5” value ([2]; doses as E9) was 2.2 and the “mean paw thickness compared to vehicle-treated Group 1M (significance)” value ([4]; 20 mg/kg PO thrice daily (Groups 4M-8M)) was “No significant differences were observed”. The “Mean Rear Paw Thickness” value ([4]; day 0, 20 mg/kg PO thrice daily (Groups 4M-8M), 20 mg/kg) was 1.71±0.02 mm and 1.71 mm, the “Mean Rear Paw Thickness” value ([4]; day 3, 20 mg/kg PO thrice daily (Groups 4M-8M)) was 1.72 mm and the “Mean Rear Paw Thickness” value ([4]; day 4, 20 mg/kg PO thrice daily (Groups 4M-8M)) was 1.64 mm. For the same compound, the “Mean Rear Paw Thickness” value ([4]; day 5, 20 mg/kg PO thrice daily (Groups 4M-8M)) was 1.71 mm, the Arthritis incidence [4, 6] was 8/10 and the “Mean Rear Paw Thickness” value [4, 6] was 1.90 mm. The “Mean Rear Paw Thickness” value ([4]; day 7, 20 mg/kg PO thrice daily (Groups 4M-8M), 20 mg/kg) was 2.15±0.10 mm and 2.15 mm, the “Mean Rear Paw Thickness” value ([4]; day 9, 20 mg/kg PO thrice daily (Groups 4M-8M)) was 2.08 mm and the “Mean Rear Paw Thickness” value ([4]; day 10, 20 mg/kg PO thrice daily (Groups 4M-8M)) was 2.07 mm. The “Mean Rear Paw Thickness” value ([4]; day 12, 20 mg/kg PO thrice daily (Groups 4M-8M), 20 mg/kg) was 2.02±0.08 mm and 2.02 mm, the “% Aspirin Erosion” value ([3]; 100 mg/kg ibuprofen (Groups D, E), relative to Group C, 50% or more = positive score for gastric irritation) was 75% and 75^1% and the “Mean Ulceration Score” value ([3]; 100 mg/kg ibuprofen oral (Groups D, E)) was 3. For the same compound, the “% Aspirin Erosion” value ([3]; 200 mg/kg ibuprofen (Groups F, G), relative to Group C, 50% or more = positive score for gastric irritation) was 95% and 95^1% and the “Mean Ulceration Score” value ([3]; 200 mg/kg ibuprofen oral (Groups F, G)) was 3.8.

With Etanercept the “mean paw thickness compared to vehicle-treated Group 1M (significance)” value ([4]; once daily dosing (Groups 2M, 3M)) was “significantly decreased paw volume compared to the positive control mice on days 9, 10 and 12”, the “Mean Rear Paw Thickness” value ([4]; day 0, once daily (Etanercept 10 mg/kg IP, Group 2M; BC1054 LF-RO 20 mg/kg PO, Group 3M)) was 1.70±0.02 mm and 1.70 mm and the “Mean Rear Paw Thickness” value ([4]; day 3, once daily (Etanercept 10 mg/kg IP, Group 2M; BC1054 LF-RO 20 mg/kg PO, Group 3M)) was 1.73 mm. For the same compound, the “Mean Rear Paw Thickness” value ([4]; day 4, once daily (Etanercept 10 mg/kg IP, Group 2M; BC1054 LF-RO 20 mg/kg PO, Group 3M)) was 1.64 mm, the “Mean Rear Paw Thickness” value ([4]; day 5, once daily (Etanercept 10 mg/kg IP, Group 2M; BC1054 LF-RO 20 mg/kg PO, Group 3M)) was 1.63 mm and the “Mean Rear Paw Thickness” value ([4]; day 6, once daily (Etanercept 10 mg/kg IP, Group 2M; BC1054 LF-RO 20 mg/kg PO, Group 3M)) was 1.96±0.05 mm and 1.96 mm. The Arthritis incidence ([4]; day 6, once daily dosing (Groups 2M, 3M)) was 9/10, the “Mean Rear Paw Thickness” value ([4]; day 7, once daily (Etanercept 10 mg/kg IP, Group 2M; BC1054 LF-RO 20 mg/kg PO, Group 3M)) was 1.95 mm and the “Mean Rear Paw Thickness” value ([4]; day 9, once daily (Etanercept 10 mg/kg IP, Group 2M; BC1054 LF-RO 20 mg/kg PO, Group 3M)) was 1.88 mm. The “Mean Rear Paw Thickness” value ([4]; day 10, once daily (Etanercept 10 mg/kg IP, Group 2M; BC1054 LF-RO 20 mg/kg PO, Group 3M)) was 1.80 mm, the “Mean Rear Paw Thickness” value ([4]; day 12, once daily (Etanercept 10 mg/kg IP, Group 2M; BC1054 LF-RO 20 mg/kg PO, Group 3M)) was 1.77±0.02 mm and 1.77 mm and the Arthritis incidence ([4]; day 12, once daily dosing (Groups 2M, 3M)) was 1/10.
